Results published in the NIST ThermoML archive (doi:10.1016/j.fluid.2006.01.028).
± gives the expanded uncertainty stated by the source.

Tests used:
[1] = for surface tension liquid-gas: Drop volume; for mass density: Liquid
[2] = xn = mol fraction of the nth substance listed; settings: for surface tension liquid-gas: Drop volume; for mass density: 101 kPa, Liquid

## CCCCCCO [hexan-1-ol]
[1]; 288.15 K
  surface tension liquid-gas: 26.08 ± 0.2 mN/m
  mass density: 822.28 ± 0.58 kg/m3
[1]; 298.15 K
  surface tension liquid-gas: 25.19 ± 0.19 mN/m
  mass density: 815.23 ± 0.59 kg/m3
[1]; 308.15 K
  surface tension liquid-gas: 24.19 ± 0.19 mN/m
  mass density: 808 ± 0.59 kg/m3

## CCCCCCCCC [nonane]
[1]; 288.15 K
  surface tension liquid-gas: 23.38 ± 0.27 mN/m
  mass density: 721.78 ± 1.4 kg/m3
[1]; 298.15 K
  surface tension liquid-gas: 22.37 ± 0.26 mN/m
  mass density: 714.02 ± 1.4 kg/m3
[1]; 308.15 K
  surface tension liquid-gas: 21.25 ± 0.25 mN/m
  mass density: 706.21 ± 1.4 kg/m3

## CCCCCCCCC [nonane] + CCCCCCO
[2]; 288.15 K, x1 = 0.05
  surface tension liquid-gas: 25.77 ± 0.2 mN/m
[2]; 288.15 K, x1 = 0.1082
  surface tension liquid-gas: 25.47 ± 0.2 mN/m
[2]; 288.15 K, x1 = 0.2075
  surface tension liquid-gas: 25.06 ± 0.21 mN/m
[2]; 288.15 K, x1 = 0.3079
  surface tension liquid-gas: 24.62 ± 0.22 mN/m
[2]; 288.15 K, x1 = 0.4075
  surface tension liquid-gas: 24.31 ± 0.22 mN/m
[2]; 288.15 K, x1 = 0.5066
  surface tension liquid-gas: 24.01 ± 0.23 mN/m
[2]; 288.15 K, x1 = 0.6024
  surface tension liquid-gas: 23.81 ± 0.24 mN/m
[2]; 288.15 K, x1 = 0.7079
  surface tension liquid-gas: 23.68 ± 0.25 mN/m
[2]; 288.15 K, x1 = 0.8081
  surface tension liquid-gas: 23.57 ± 0.26 mN/m
[2]; 288.15 K, x1 = 0.9036
  surface tension liquid-gas: 23.48 ± 0.27 mN/m
[2]; 288.15 K, x1 = 0.9554
  surface tension liquid-gas: 23.44 ± 0.27 mN/m
[2]; 288.15 K, x1 = 0.0509
  mass density: 815.13 ± 0.6 kg/m3
[2]; 288.15 K, x1 = 0.1003
  mass density: 808.46 ± 0.62 kg/m3
[2]; 288.15 K, x1 = 0.2028
  mass density: 795.35 ± 0.66 kg/m3
[2]; 288.15 K, x1 = 0.307
  mass density: 783.01 ± 0.7 kg/m3
[2]; 288.15 K, x1 = 0.4026
  mass density: 772.51 ± 0.73 kg/m3
[2]; 288.15 K, x1 = 0.5086
  mass density: 761.75 ± 0.77 kg/m3
[2]; 288.15 K, x1 = 0.6016
  mass density: 753.02 ± 0.8 kg/m3
[2]; 288.15 K, x1 = 0.708
  mass density: 743.74 ± 0.83 kg/m3
[2]; 288.15 K, x1 = 0.808
  mass density: 735.7 ± 0.86 kg/m3
[2]; 288.15 K, x1 = 0.9016
  mass density: 728.72 ± 0.89 kg/m3
[2]; 288.15 K, x1 = 0.9506
  mass density: 725.26 ± 0.91 kg/m3
[2]; 298.15 K, x1 = 0.0504
  surface tension liquid-gas: 24.84 ± 0.2 mN/m
[2]; 298.15 K, x1 = 0.1004
  surface tension liquid-gas: 24.54 ± 0.2 mN/m
[2]; 298.15 K, x1 = 0.2042
  surface tension liquid-gas: 24.12 ± 0.2 mN/m
[2]; 298.15 K, x1 = 0.2998
  surface tension liquid-gas: 23.69 ± 0.21 mN/m
[2]; 298.15 K, x1 = 0.388
  surface tension liquid-gas: 23.41 ± 0.22 mN/m
[2]; 298.15 K, x1 = 0.5011
  surface tension liquid-gas: 23.07 ± 0.22 mN/m
[2]; 298.15 K, x1 = 0.606
  surface tension liquid-gas: 22.84 ± 0.23 mN/m
[2]; 298.15 K, x1 = 0.7086
  surface tension liquid-gas: 22.66 ± 0.24 mN/m
[2]; 298.15 K, x1 = 0.8085
  surface tension liquid-gas: 22.56 ± 0.25 mN/m
[2]; 298.15 K, x1 = 0.9007
  surface tension liquid-gas: 22.48 ± 0.26 mN/m
[2]; 298.15 K, x1 = 0.9508
  surface tension liquid-gas: 22.39 ± 0.26 mN/m
[2]; 298.15 K, x1 = 0.0509
  mass density: 807.93 ± 0.6 kg/m3
[2]; 298.15 K, x1 = 0.1003
  mass density: 801.18 ± 0.62 kg/m3
[2]; 298.15 K, x1 = 0.2028
  mass density: 787.95 ± 0.66 kg/m3
[2]; 298.15 K, x1 = 0.307
  mass density: 775.48 ± 0.7 kg/m3
[2]; 298.15 K, x1 = 0.4026
  mass density: 764.9 ± 0.73 kg/m3
[2]; 298.15 K, x1 = 0.5086
  mass density: 754.06 ± 0.77 kg/m3
[2]; 298.15 K, x1 = 0.6016
  mass density: 745.28 ± 0.8 kg/m3
[2]; 298.15 K, x1 = 0.708
  mass density: 735.96 ± 0.84 kg/m3
[2]; 298.15 K, x1 = 0.808
  mass density: 727.88 ± 0.87 kg/m3
[2]; 298.15 K, x1 = 0.9016
  mass density: 720.88 ± 0.9 kg/m3
[2]; 298.15 K, x1 = 0.9506
  mass density: 717.44 ± 0.91 kg/m3
[2]; 308.15 K, x1 = 0.0511
  surface tension liquid-gas: 23.81 ± 0.19 mN/m
[2]; 308.15 K, x1 = 0.1013
  surface tension liquid-gas: 23.52 ± 0.19 mN/m
[2]; 308.15 K, x1 = 0.2059
  surface tension liquid-gas: 23.08 ± 0.2 mN/m
[2]; 308.15 K, x1 = 0.3066
  surface tension liquid-gas: 22.59 ± 0.2 mN/m
[2]; 308.15 K, x1 = 0.404
  surface tension liquid-gas: 22.27 ± 0.21 mN/m
[2]; 308.15 K, x1 = 0.5065
  surface tension liquid-gas: 21.98 ± 0.22 mN/m
[2]; 308.15 K, x1 = 0.6028
  surface tension liquid-gas: 21.77 ± 0.22 mN/m
[2]; 308.15 K, x1 = 0.7135
  surface tension liquid-gas: 21.59 ± 0.23 mN/m
[2]; 308.15 K, x1 = 0.8059
  surface tension liquid-gas: 21.47 ± 0.24 mN/m
[2]; 308.15 K, x1 = 0.9043
  surface tension liquid-gas: 21.34 ± 0.25 mN/m
[2]; 308.15 K, x1 = 0.9519
  surface tension liquid-gas: 21.27 ± 0.25 mN/m
[2]; 308.15 K, x1 = 0.0509
  mass density: 800.64 ± 0.61 kg/m3
[2]; 308.15 K, x1 = 0.1003
  mass density: 793.82 ± 0.63 kg/m3
[2]; 308.15 K, x1 = 0.2028
  mass density: 780.43 ± 0.67 kg/m3
[2]; 308.15 K, x1 = 0.307
  mass density: 767.86 ± 0.7 kg/m3
[2]; 308.15 K, x1 = 0.4026
  mass density: 757.19 ± 0.74 kg/m3
[2]; 308.15 K, x1 = 0.5086
  mass density: 746.28 ± 0.77 kg/m3
[2]; 308.15 K, x1 = 0.6016
  mass density: 737.44 ± 0.8 kg/m3
[2]; 308.15 K, x1 = 0.708
  mass density: 728.09 ± 0.84 kg/m3
[2]; 308.15 K, x1 = 0.808
  mass density: 719.98 ± 0.87 kg/m3
[2]; 308.15 K, x1 = 0.9016
  mass density: 712.97 ± 0.9 kg/m3
[2]; 308.15 K, x1 = 0.9506
  mass density: 709.52 ± 0.91 kg/m3
